Entries after “also recorded” stand apart in the source; their conditions may differ. Where a SMILES comes first, the peptide text is derived from it.
Columns and labels:
[1] = test system: angiogenesis in Matrigel deposits imbibed with fibroblast growth factor 1 (FGF1); experiment: Matrigel deposit angiogenesis assay (FGF1-loaded Matrigel implanted in mice, histology score); type: in vivo; set-up: key to top level score reached in Matrigel deposits: ++++: This system ranks each sample using a 0 to 4 plus (+) scale; B in FIG. 13 would yield a score of +++; no + sign would yield a value of 0, as in A in FIG. 13; settings: for angiogenic activity score, Sample 1 / angiogenic activity score, Sample 2 / angiogenic activity score, Sample 3 / angiogenic activity score, Sample 4 / top level score reached in Matrigel deposits / angiogenic activity score, Sample 5 / angiogenic activity score, Sample 6 / angiogenic activity score, Sample 7 / angiogenic activity score, Sample 8: 0 to 4 plus scale; for angiogenic activity score, Sample 1 / angiogenic activity score, Sample 2 / angiogenic activity score, Sample 3 / angiogenic activity score, Sample 4 / angiogenic activity score, Sample 5 / angiogenic activity score, Sample 6 / angiogenic activity score, Sample 7 / angiogenic / anti-angiogenic activity in Matrigel deposit (in words) / angiogenic activity score, Sample 8: 20 μg peptide IP daily; for angiogenic activity score, Sample 1 / angiogenic activity score, Sample 2 / angiogenic activity score, Sample 3 / angiogenic activity score, Sample 4 / angiogenic activity score, Sample 5 / angiogenic activity score, Sample 6 / angiogenic activity score, Sample 7 / angiogenic activity score, Sample 8: Day 14 histology; for % Diff.: difference of mean score from control (2.50); for angiogenic activity score, Mean: mean of samples, control mean 2.50; for angiogenic / anti-angiogenic activity in Matrigel deposit (in words): histology, Day 14
Excerpt: Matrigel deposits were surgically implanted on both sides of 4 mice per treatment yielding a possible 8 samples per treatment. Matrigel is a polymeric substance that appears to be relatively inert in animals and it can serve as a matrix that allows experimentation in vivo on many different difficult-to-study-processes. Prior to implantation, the Matrigel was allowed to imbibe fibroblast growth factor 1 (FGF1). This protein is a powerful inducer of angiogenesis and its presence guarantees that sufficient activity will be observed within the allotted time period of the experiment. Therefore, any inhibition of angiogenesis is likely to be a real phenomenon as the experiment has been set to heavily favor the angiogenic process. Angiogenesis occurs by day 14 and beginning Day 1 (Day 0=day of implantation), mice were injected IP daily with 20 μg of peptide in 100 μl of normal saline. The animals were sacrificed on Day 14, and each Matrigel deposit divided longitudinally and fixed in 10% buffered formalin. One of the halves of each Matrigel deposit was then sectioned. Read-out for this experiment was via histology, with semi-quantitative/qualitative counting of migration of cells and their subsequent assembly of lumenal structures within the Matrigel. This method allows us to observe the full physiologic spectrum of effects, and was useful in delineating trends. […] In FIG. 13, A represents what a section of a Matrigel gel deposit looks like under the microscope soon after surgical implantation. The sample in B is derived from the control at the conclusion of the experiment. Intense activity is present with numerous cells attaching to the surface of the Matrigel. Cells begin to penetrate the deposit and organize into discrete structures that coalesce to form the beginning of tubes twisting and branching in many directions. These venules eventually connect with the system carrying blood and it is possible to see red cells and lymphocytes within them. This process is called “arborization”, derived from the fact that the angiogenic process most closely resembles the growth of roots and branches of trees. All but two of the peptide treatments looked, more or less, like B (all the peptides of Table 1 were tested). In C, a typical sample from the peptide C-1 treatment is shown. […] Consequently, there were far fewer cells and cellular structures inside of the Matrigel. […] There were large regions of Matrigel that had no visibly associated structures and few single cells, including on the periphery, while other regions had some limited activity.
This system ranks each sample using a 0 to 4 plus (+) scale. Thus, B in FIG. 13 would yield a score of +++ while no + sign would yield a value of 0, as in A in FIG. 13. In Table 3 the data is modified to a numerical form and plotted averages are shown.

[2] = Fate of radiolabeled (3H/14C) peptide after injection into the animal; type: in vivo; settings: no matter the route of administration
Excerpt: Lytic peptides are active in eliminating tumor-derived cells by causing direct osmotic lysis. […] Indeed, that is the case. […] However, in some cases there was little activity. To determine what might be happening in vivo, radiolabeled D2A21 was chemically synthesized with all alanines labeled with either ^3H or ^14C. Since the labeling pattern was asymmetric, it enabled us to follow the physical state of the peptide once it had been injected into the animal by comparing the unique ratios of ^3H/^14C that would result if the peptide experienced proteolysis. […] The possibility emerged that the systemic in vivo anti-cancer activity was retained within specific fragments of D2A21.

[3] = test system: Stage IV pancreatic cancer; settings: cited from earlier work
HMEC-1 monolayer = experiment: Endothelial cell migration assay (scraped HMEC-1 monolayer); type: cell-based; settings: NT = 1.00
Protocol: The results in Table 6 are gathered from an in vitro experiment and show the ability of JC 15 10N to inhibit the migration of endothelial cells (the “minus” values). This migration is a requisite step in the formation of new blood vessels. […] The shading indicates the presence of VEGF ([…] endothelial growth factor). This growth factor causes endothelial cell migration and consequent assembly of blood vessels.
Cell migration was performed as previously described. In brief, a HMEC-1 monolayer was scraped making a 1-mm wide denuded area then stimulated with VEGF and 10N and the area unoccupied by the migrating cells was determined using MetaMorph and expressed as a percentage of control.

Row | Compound | angiogenic activity score, Sample 1 [1] | angiogenic activity score, Sample 2 [1] | angiogenic activity score, Sample 3 [1] | angiogenic activity score, Sample 4 [1] | % Diff. [1] | angiogenic activity score, Mean [1] | top level score reached in Matrigel deposits [1] | angiogenic activity score, Sample 5 [1] | angiogenic activity score, Sample 6 [1] | angiogenic activity score, Sample 7 [1] | angiogenic / anti-angiogenic activity in Matrigel deposit (in words) [1] | angiogenic activity score, Sample 8 [1] | time to hydrolysis of labeled peptide to fragments of various lengths [2] | longest survival on treatment ([3]; patients with Stage IV pancreatic cancer on gemcitabine treatment) | Median survival time ([3]; patients with Stage IV pancreatic cancer treated with gemcitabine (untreated 4.5 months)) | Endothelial Cell Migration (HMEC-1 monolayer; VEGF 75 ng/ml, second series) | Endothelial Cell Migration (HMEC-1 monolayer; VEGF 150 ng/ml, first series) | Endothelial Cell Migration (HMEC-1 monolayer; VEGF 150 ng/ml, third series)
1 | PTAQLIATLKNGRKI [PF-1] | 2 | 3 | 2 | 3 | 0.00% | 2.50 |  |  |  |  |  |  |  |  |  |  |  | 
2 | FAKKFAKKFKKF [JC15-12N] | 4 | 2 | 3 | 2 | 8.57% | 2.71 | ++++ | 3 | 2 | 3 | levels of activity higher than the control; also recorded: cannot exert an anti-angiogenic effect |  |  |  |  |  |  | 
3 | MFGNGKGYRGKRATTVTGTP [PL-2] | 2 | 3 | 2 | 3 | −2.86% | 2.43 |  | 2 | 3 | 2 |  |  |  |  |  |  |  | 
4 | FAKKFAKFAF [JC15-10C] | 2 | 3 | 2 | 3 | 0.00% | 2.50 |  | 2 | 3 | 2 | inactive | 3 |  |  |  |  |  | 
5 | C[C@H](NC(=O)[C@H](Cc1ccccc1)NC(=O)[C@H](C)NC(=O)[C@H](Cc1ccccc1)NC(=O)[C@H](CCCCN)NC(=O)[C@H](C)NC(=O)[C@H](Cc1ccccc1)NC(=O)[C@H](CCCCN)NC(=O)[C@H](CCCCN)NC(=O)[C@H](C)NC(=O)[C@H](Cc1ccccc1)NC(=O)[C@H](CCCCN)NC(=O)[C@H](CCCCN)NC(=O)[C@H](Cc1ccccc1)NC(=O)[C@H](CCCCN)NC(=O)[C@H](CCCCN)NC(=O)[C@H](C)NC(=O)[C@H](Cc1ccccc1)NC(=O)[C@H](CCCCN)NC(=O)[C@H](CCCCN)NC(=O)[C@H](C)NC(=O)[C@@H](N)Cc1ccccc1)C(=O)N[C@@H](Cc1ccccc1)C(=O)O [JC15] (H-FAKKFAKKFKKFAKKFAKFAFAF-OH; N-terminus and C-terminus assumed) |  |  |  |  |  |  |  |  |  |  |  |  | within minutes |  |  |  |  | 
6 | QAWDSQSPHAHGYIPSKFPNKNLKKNY [PL-1] | 2 | 3 | 2 | 3 | 0.00% | 2.50 |  | 2 | 3 | 2 |  | 3 |  |  |  |  |  | 
7 | FAKKFAKKFKKFAKKFAK [JC15-18N] | 3 | 2 | 3 | 3 | 10.00% | 2.75 |  |  |  |  | levels of activity higher than the control; also recorded: cannot exert an anti-angiogenic effect |  |  |  |  |  |  | 
8 | LDLQAPLYKKIIKKLLES [PF-2] | 2 | 3 | 2 | 3 | 0.00% | 2.50 |  |  |  |  |  |  |  |  |  |  |  | 
9 | IVRRADRAAVPIVNLKDELL [C-1] | 2 | 2 | 3 | 1 | −26.67% | 1.83 |  | 2 | 1 |  | far fewer cellular associations; also recorded: possess anti-angiogenic activity |  |  |  |  |  |  | 
10 | Nc1ccn([C@@H]2O[C@H](CO)[C@@H](O)C2(F)F)c(=O)n1 [gemcitabine] |  |  |  |  |  |  |  |  |  |  |  |  |  | 19 months | 4.8 months |  |  | 
11 | KKFKKFAKKFAKFAF [JC15-15C] | 2 | 3 | 2 | 3 | 10.00% | 2.75 | ++++ | 2 | 3 | 3 | levels of activity higher than the control; also recorded: cannot exert an anti-angiogenic effect | 4 |  |  |  |  |  | 
12 | vascular endothelial growth factor [VEGF, reference compound] |  |  |  |  |  |  |  |  |  |  |  |  |  |  |  | 0.69 | 0.78 | 0.77
